From patent US5607836A, “Methods of detecting compounds which bind to the P2U receptor” (The Curators of the University of Missouri, priority 1995, dated 1997)

Assays:
murine P2U receptor [1] = molecular target: T1, murine P2U receptor (Mus musculus, UniProt P35383); experiment: cytoplasmic free calcium (fura-2) in K562 cells transfected with P2U receptor cDNA; format: cell-based; set-up: missing the first 6 nucleotides of the 5' untranslated region of the full length cDNA; expressed in transfected cells; host or cells: K562 human leukemia cells; details: for effect on [Ca^2+ ]i in stable transfectants / prevention of ATP-mediated increases in [Ca^2+ ]i (antagonism): concentrations as high as 1 mM, stable transfectants
Text: (§1) Stable and Transient Transfections. To generate stable transfectants expressing the P2U receptor, K562 cells were transfected by electroporation (F. Toneguzzo et al., Mol. Cell. Biol. 6, 703 (1986)) with the neomycin-resistance plasmid pP2R1. pP2R1 is pRc/CMV containing a ~2.4 kb HindIII-NotI fragment of the P2U receptor cDNA, missing the first 6 nucleotides of the 5' untranslated region of the full length cDNA. control cells were stably transfected with pRc/CMV. Cells were sedimented at 200×g for 5 min at room temperature, rinsed once with phosphate-buffered saline (10 mM NaH2 PO4, pH 7.4, 120 mM NaCl, 5 mM KCl), and resuspended in phosphate-buffered saline at a final concentration of 4×10^7 cells/ml. The cells were chilled on ice for 10 min and then transferred in 0.5 ml aliquots to prechilled electroporation cuvettes. DNA (40 μg of pP2R1 linearized with PvuI) was added to the cell suspension, the cells were subjected to a single electrical pulse (1 kV, 25 μF) and the cuvettes were placed on ice. After 10 min, growth medium was added and the cells were incubated at 37° C. Fresh growth medium supplemented with 0.7 mg/ml G418 was added 48 h […], and the cells were incubated for 2 weeks to select for stable transfectants expressing neomycin resistance. Clonal cell lines were then isolated by transferring single cells to individual wells of a 96-well culture plate: each well contained 0.2 ml of conditioned growth medium filtered from K562 stock cultures, 0.2 ml of fresh growth medium, and 0.4 mg/ml G418. The clonal cell lines were cultured for three to four weeks in growth medium containing 0.4 mg/ml G418 and assayed for P2U receptor, the results shown are from one representative clonal cell line.
To generate transient transfectants, K562 cells were transfected as above with 40 μg unlinearized plasmid pCCM6×1 or pP2R (Lustig et al., supra 1993). Cells were incubated for 48 h at 37° C. in 100 mm culture dishes containing 12 ml of growth medium and assayed for P2U receptor activity.
(§2) Cytoplasmic Free Calcium Measurements. Cells were sedimented at 200×g for 5 min at room temperature and washed once with 10 ml of Hepes-bufferedsaline (20 mM Hepes, pH 7.4, 120 mM NaCl, 5 mM KCl, 1 mM MgCl2, and 1 mM CaCl2). Washed cells were suspended in Hepes-buffered saline at 5×10^5 cells/ml, and stored (for up to 4 h) at 37° C. The concentration of cytoplasmic free calcium, [Ca^2+ ]i, was measured by dual-excitation spectrofluorometric analysis of cells loaded with fura-2, a fluorescent probe for calcium.

[2] = system: P2T receptor of K562 cells; experiment: cytoplasmic free calcium (fura-2) in untransfected or vector-transfected K562 cells; format: cell-based, human; details: untransfected K562 cells; for effect on [Ca^2+ ]i in untransfected K562 cells: concentrations as high as 1 mM; for elevation of [Ca^2+ ]i in untransfected K562 cells (P2T receptor): 1 mM for ATP, UTP, ATPγS, BzATP, BzUTP
Text: as §1, §2

murine P2U receptor [3] = molecular target: T1, murine P2U receptor; set-up: host or cells: Xenopus oocytes; details: Lustig et al. 1993, cited from earlier work; for stimulation of ^45 Ca^2+ efflux in oocytes: oocytes expressing the cloned receptor
human P2U receptor [4] = molecular target: T2, human P2U receptor (Homo sapiens, UniProt P41231); experiment: intracellular calcium by fura-2 fluorescence in 1321N1 human astrocytoma cells expressing the cloned HP2U (LHP2USN); format: cell-based; details: for efficacy / effect in concentration-effect curves: HP2U clone expressed in 1321N1 cells
Method: (§3) Heteroloqous Expression. A retroviral vector-containing plasmid, pLHP2USN, was constructed by insertion of the cloned CF/T43 cDNA into the EcoRI and XhoI sites of pLXSN (A. Miller and G. Rosman, Biotechniques 7, 980 (1989)). An amphotrophic packaging cell line, PA317, was used to produce the LHP2USN retroviral vector and a control vector containing Neor only (LSN). Clonal human astrocytoma cells 1321N1, UNC strain, generously provided by T. K. Harden (UNC, Chapel Hill, N.C.), were plated at 150,000 cells per 60-mm dish and infected with LHP2USN or LSN (2 hr, 4 ug/ml Polybrene) and after 48 hr selected with 600 ug/ml G418 (Life Technologies, Inc., Gaithersburg, Md., U.S.A.). To assay for receptor activity, intracellular calcium concentration was measured in confluent cells on coverslips by fura-2 fluorescence using microspectrofluorimetry as previously described (S. Mason et al., Br. J. Pharmacol. 103, 1649 (1991)). Measurement of cell inositol phosphate formation was as described by H. Brown et al., Mol. Pharmacol. 40, 648 (1991), in accordance with known techniques.
(§4) A retrovirus expression system was employed to study the cloned CF/T43 HP2U cDNA in 1321N1 human astrocytoma cells. The effect of extracellular nuceotides on intracellular calcium, as measured by fura-2 fluorescence, was assessed in CF/T43 cells, uninfected 1321N1 cells, and 1321N1 cells infected with retroviral vector containing either the cloned HP2U or no insert (LSN).
To examine the pharmacological specifity of the HP2U clone expressed in 1321N1 cells, concentration-effect curves were generated for nucleotides and structural analogues active at P2X, P2Y and P2U receptors (data not shown). […] These concentration-effect relations are very similar to those reported for heterologously expressed murine P2U (Lustig, et al., supra) and virtually indistinguishable from data (not shown) generated for the endogenous CF/T43 and HT-29 receptors. Clearly, the agonist specifities fit the definition of the P2U receptor.

human P2U receptor [5] = molecular target: T2, human P2U receptor; experiment: inositol phosphate formation in 1321N1 cells expressing LHP2USN; format: cell-based; details: HP2U-1321N1 cells; apyrase in the medium during cell-labeling step
Method: as §3
To test this possibility more directly, we measured inositol phosphate formation. […] We hypothesized that during the lengthy labeling period 1321N1 cells released 5'-nucleotides into the medium in quantities sufficient to "self-activate" the receptor. […] Thus, it appears the cells are persistently stimulated by nucleotides in an autocrine fashion. The mode of release of nucleotides from the astrocytoma cells and the biological consequences of the persistent autocrine activation are unknown. To facilitate comparison with controls, the inositol phosphate studies were performed on cells pretreated with apyrase.

[6] = system: 1321N1 human astrocytoma cells (uninfected or LSN-infected); experiment: intracellular calcium by fura-2 fluorescence in uninfected or LSN-infected 1321N1 control cells; format: cell-based; details: uninfected or LSN-infected controls
Method: as §3, §4

[7] = molecular target: T3, P2U receptor of CF/T43 cells (Homo sapiens, UniProt P41231); experiment: intracellular calcium by fura-2 fluorescence in CF/T43 cells (endogenous receptor); format: cell-based; details: pretreatment
T3 construct: fura-2 calcium
Method: as §3, §4

T2 sequence (P41231 whole entry): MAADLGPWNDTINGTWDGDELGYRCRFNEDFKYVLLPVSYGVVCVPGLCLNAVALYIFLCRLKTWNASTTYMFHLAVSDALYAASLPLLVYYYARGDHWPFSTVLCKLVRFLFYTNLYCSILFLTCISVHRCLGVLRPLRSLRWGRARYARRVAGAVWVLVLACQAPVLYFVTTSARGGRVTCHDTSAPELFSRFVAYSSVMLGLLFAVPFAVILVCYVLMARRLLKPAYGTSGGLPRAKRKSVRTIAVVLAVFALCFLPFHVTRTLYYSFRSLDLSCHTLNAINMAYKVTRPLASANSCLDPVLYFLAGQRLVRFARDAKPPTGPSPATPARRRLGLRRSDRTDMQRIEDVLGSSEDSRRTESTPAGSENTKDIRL
T1 sequence (P35383 whole entry, the tested form may be a part): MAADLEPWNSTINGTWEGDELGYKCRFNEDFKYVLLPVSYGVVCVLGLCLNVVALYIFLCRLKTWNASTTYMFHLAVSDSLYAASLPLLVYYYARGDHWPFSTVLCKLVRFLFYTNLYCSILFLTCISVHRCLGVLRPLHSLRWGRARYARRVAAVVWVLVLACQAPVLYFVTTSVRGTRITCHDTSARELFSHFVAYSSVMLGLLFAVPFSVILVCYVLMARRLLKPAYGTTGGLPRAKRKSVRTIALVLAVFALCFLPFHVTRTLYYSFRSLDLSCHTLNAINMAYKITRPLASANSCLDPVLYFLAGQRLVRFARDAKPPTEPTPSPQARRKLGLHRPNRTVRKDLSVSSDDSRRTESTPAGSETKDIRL
T3 sequence (P41231 whole entry): as the sequence (P41231 whole entry) above

Compound	effect on [Ca^2+ ]i in stable transfectants (murine P2U receptor [1])	prevention of ATP-mediated increases in [Ca^2+ ]i (antagonism) (murine P2U receptor [1])	effect on [Ca^2+ ]i in untransfected K562 cells [2]	also measured
Nc1ncnc2c1ncn2[C@@H]1O[C@H](COP(=O)(O)OP(=O)(O)CP(=O)(O)O)[C@@H](O)[C@H]1O [β,γ methyleneATP]	had no effect	did not prevent ATP-mediated increases	had no effect	–
O=c1ccn([C@@H]2O[C@H](COP(=O)(O)OP(=O)(O)O)[C@@H](O)[C@H]2O)c(=O)[nH]1 [UDP]	had no effect	did not prevent ATP-mediated increases	had no effect	–
Nc1ncnc2c1ncn2[C@@H]1O[C@H](COP(=O)(O)OP(=O)(O)NP(=O)(O)O)[C@@H](O)[C@H]1O [β,γ imidoATP]	had no effect	did not prevent ATP-mediated increases	had no effect	–
Nc1ncnc2c1ncn2[C@@H]1O[C@H](COP(=O)(O)OP(=O)(O)OP(O)(O)=S)[C@@H](O)[C@H]1O [ATPγS]	–	–	–	agonist activity at the P2U receptor (murine P2U receptor [1]; K562 stable transfectants): relatively potent agonist; EC50 (murine P2U receptor [1]; K562 stable transfectants, read-out: EC50 for increases in [Ca^2+ ]i): ~9.6 µM; agonist activity at the P2U receptor in Xenopus oocytes (murine P2U receptor [3]; Xenopus oocytes): relatively potent agonist
CSc1nc(N)c2ncn([C@@H]3O[C@H](COP(=O)(O)OP(=O)(O)OP(=O)(O)O)[C@@H](O)[C@H]3O)c2n1 [2-MeSATP, 2-methylthioATP]	–	–	–	agonist activity at the P2U receptor (murine P2U receptor [1]; K562 stable transfectants): do not appear to act as agonists of the P2U receptor; elevation of [Ca^2+ ]i in untransfected K562 cells (P2T receptor) [2]: elevated [Ca^2+ ]i; stimulation of ^45 Ca^2+ efflux in oocytes (murine P2U receptor [3]): did not stimulate; efficacy / effect in concentration-effect curves (human P2U receptor [4]): had little effect
Nc1ncnc2c1ncn2[C@@H]1O[C@H](COP(=O)(O)CP(=O)(O)OP(=O)(O)O)[C@@H](O)[C@H]1O [α,β-MeATP]	–	–	–	efficacy / effect in concentration-effect curves (human P2U receptor [4]): had little effect
Nc1ccn([C@@H]2O[C@H](COP(=O)(O)OP(=O)(O)OP(=O)(O)O)[C@@H](O)[C@H]2O)c(=O)n1 [CTP]	had no effect	did not prevent ATP-mediated increases	had no effect	–
Nc1ncnc2c1ncn2[C@@H]1O[C@H](CO)[C@@H](O)[C@H]1O [adenosine]	had no effect	did not prevent ATP-mediated increases	had no effect	–
Cc1cn([C@H]2C[C@H](O)[C@@H](COP(=O)(O)OP(=O)(O)OP(=O)(O)O)O2)c(=O)[nH]c1=O [TTP]	had no effect	did not prevent ATP-mediated increases	had no effect	–
Nc1nc2c(ncn2[C@@H]2O[C@H](COP(=O)(O)OP(=O)(O)OP(=O)(O)O)[C@@H](O)[C@H]2O)c(=O)[nH]1 [GTP]	had no effect	did not prevent ATP-mediated increases	had no effect	–
apyrase	–	–	–	baseline inositol phosphate levels (human P2U receptor [5]): reduced the baseline inositol phosphate levels to values near those of controls
Nc1ncnc2c1ncn2[C@@H]1O[C@H](COP(=O)(O)OP(=O)(O)O)[C@@H](O)[C@H]1O [ADP]	–	–	–	agonist activity at the P2U receptor (murine P2U receptor [1]; K562 stable transfectants): do not appear to act as agonists of the P2U receptor; elevation of [Ca^2+ ]i in untransfected K562 cells (P2T receptor) [2]: elevated [Ca^2+ ]i; stimulation of ^45 Ca^2+ efflux in oocytes (murine P2U receptor [3]): did not stimulate
Nc1ncnc2c1ncn2[C@@H]1O[C@H](COP(=O)(O)OP(=O)(O)OP(=O)(O)O)[C@@H](OC(=O)c2ccc(C(=O)c3ccccc3)cc2)[C@H]1O [BzATP, 3'-O-(4-benzoyl)benzoyl adenosine 5'-triphosphate]	–	–	–	agonist activity at the P2U receptor (murine P2U receptor [1]; K562 stable transfectants): relatively weak agonists compared to ATP and UTP
C[N+](C)(C)CCOC(N)=O [carbachol]	–	–	–	[Ca^2+ ]i response of uninfected or LSN-infected 1321N1 cells [6]: elicited responses in each case
Nc1ncnc2c1ncn2[C@@H]1O[C@H](COP(=O)(O)O)[C@@H](O)[C@H]1O [AMP]	had no effect	did not prevent ATP-mediated increases	had no effect	–
O=C(O[C@H]1[C@@H](O)[C@H](n2ccc(=O)[nH]c2=O)O[C@@H]1COP(=O)(O)OP(=O)(O)OP(=O)(O)O)c1ccc(C(=O)c2ccccc2)cc1 [BzUTP, 3'-O-(4-benzoyl)benzoyl uridine 5'-triphosphate]	–	–	–	agonist activity at the P2U receptor (murine P2U receptor [1]; K562 stable transfectants): relatively weak agonists compared to ATP and UTP
pertussis toxin	–	–	–	inhibition of ATP-stimulated intracellular Ca^2+ mobilization [7]: 20-30%; inhibition of ATP-stimulated intracellular Ca^2+ mobilization (human P2U receptor [4]; HP2U-1321N1 cells, pretreatment): 20-30%
